Entries after “also recorded” stand apart in the source; their conditions may differ. RB = Rose Bengal carboxylic acid derivative, attached to the N-terminus
Assays:
[1] = test system: B16-F10-Luc2 melanoma tumour; test: PDT and SDT treatment of ectopic B16 melanoma tumours in SCID mice (Example 6); type: in vivo; conditions: 100 μL of 100 μM by tail vein injection
Protocol: B16-F10-Luc2 cells (3×10^5) maintained as described in Example 3, were re-suspended in 100 μL of PBS and implanted into the rear dorsum of SCID mice. Four days after implantation tumour measurements were taken using calipers and tumour volume calculated from the geometric mean diameter using the equation: tumour volume=4πR^3/3. The animals were then randomly distributed into […] (n=5): Group 1 involved untreated animals; Group 2 treated with the RB-(KLAKLAK)2 (SEQ ID NO. 1) conjugate and no light; Group 3 treated with the RB-(KLAKLAK)2 (SEQ ID NO. 1) conjugate and light; Group 4 treated with the RB-(KLAKLAK)2 (SEQ ID NO. 1) conjugate and SDT, and Group 5 treated with RB and light. Following induction of anaesthesia (intraperitoneal injection of Hypnorm/Hypnovel), a 100 μL aliquot of PBS containing 100 μM RB or the RB-(KLAKLAK)2 (SEQ ID NO. 1) conjugate was administered by tail vein injection. Group 3 and Group 5: 30 minutes later tumours were exposed to white light for 3 min (68.4 J/cm^−2). […] After treatment, animals were allowed to recover from anaesthesia and tumour volume was monitored for 12 days with animals retreated using the same conditions on days 1, 2, 7 and 9. The % increase in tumour volume was calculated employing the pre-treatment measurements for each group. […]

[2] = test system: B16-F10-Luc2 melanoma tumour; test: PDT of B16 melanoma tumour growth in a mouse model (Example 5); type: in vivo, SCID mice; conditions: for tumour growth / tumour size, as part of PDT: 100 μL of 100 μM by tail vein injection, white light 3 min (68.4 J/cm^-2) 30 minutes later, retreated days 1, 2, 7, 9
Protocol: In these studies all animals were treated humanely and in accordance with licensed procedures under the UK Animals (Scientific Procedures) Act 1986. B16-F10-Luc2 cells (3×10^5) maintained as described in Example 3, were re-suspended in 100 μL of PBS and implanted into the rear dorsum of SCID mice. Four days after implantation tumour measurements were taken using calipers and tumour volume calculated from the geometric mean diameter using the equation: tumour volume=4πR^3/3. The animals were then randomly distributed into four groups (n=5): Group 1 involved untreated animals; Group 2 treated with the RB-(KLAKLAK)2 (SEQ ID NO. 1) conjugate and no light; Group 3 treated with the RB-(KLAKLAK)2 (SEQ ID NO. 1) conjugate and light; Group 4 treated with RB and light. Following induction of anaesthesia (intraperitoneal injection of Hypnorm/Hypnovel), a 100 μL aliquot of PBS containing 100 μM RB or the RB-(KLAKLAK)2 (SEQ ID NO. 1) conjugate was administered by tail vein injection. Group 3 and Group 4: 30 minutes later tumours were exposed to white light for 3 min (68.4 J/cm^−2). After treatment, animals were allowed to recover from anaesthesia and tumour volume was monitored for 12 days with animals retreated using the same conditions on days 1, 2, 7 and 9. The % increase in tumour volume was calculated employing the pre-treatment measurements for each group. On day 13, the animals were euthanized and the tumours were removed for analysis.

[3] = test system: B16-F10-Luc2 melanoma cells; test: SDT of B16 melanoma cells, MTT cell viability assay; type: cell-based, murine; conditions: 2.5, 5.0, 10 μM, 3 hours incubation, ultrasound, viability 24 hours later
[4] = test system: MCF-7 invasive breast ductal carcinoma cells; test: PDT of MCF-7 breast cancer cells, MTT cell viability assay; type: cell-based, Human; conditions: 0.05, 0.1, 0.5, 1 μM, 3 h incubation, white light 1 min (22.8 J/cm^2), viability 24 h later
Protocol: (§1) Human MCF-7 invasive breast ductal carcinoma cells were maintained Dulbecco's Modified Eagle Media (DMEM) supplemented with 10% foetal bovine serum (FBS) and 1% penicillin streptomycin. The cells were incubated at 37° C. in a humidified 5% (v/v) CO2 atmosphere. Cells were seeded at a concentration of 5×10^3 cells per well in 96-well tissue culture plate for 24 hours. The medium was removed from each well and the cells incubated for 3 h with drug (100 μL) at concentrations of 0.05 μM, 0.1 μM, 0.5 μM and 1 μM in media. The drug solution was then removed and the cells washed twice with PBS, fresh media was added and selected wells exposed to white light for 1 min (22.8 J/cm^2). Fresh media was then added to each of the wells and cell viability determined 24 h later using a MTT assay. Each experiment was repeated on 3 separate occasions with an n=6 on each occasion.

[5] = test system: PANC-1 epithelioid carcinoma cells; test: PDT of PANC-1 pancreatic cancer cells, MTT cell viability assay; type: cell-based, Human; conditions: 0.05, 0.1, 0.5, 1 μM, 3 h incubation, white light 1 min (22.8 J/cm^2), viability 24 h later
Protocol: as §1, with “PANC-1 epithelioid” for “MCF-7 invasive breast ductal”

[6] = test system: B16-F10-Luc2 melanoma cells; test: PDT of B16 melanoma cells, MTT cell viability assay; type: cell-based, murine; conditions: 2.5, 5.0, 10 μM, 3 h incubation, white light 1 min (22.8 J/cm^2), viability 24 h later
Protocol: (§2) Murine melanoma B16-F10 Luc-2 cells were maintained Dulbecco's Modified Eagle Media (DMEM) supplemented with 10% foetal bovine serum (FBS) and 1% penicillin streptomycin. The cells were incubated at 37° C. in a humidified 5% (v/v) CO2 atmosphere. Cells were seeded at a concentration of 4×10^3 cells per well in 96-well tissue culture plate for 24 hours. The medium was removed from each well and the cells incubated for 3 h with drug (100 μL) at concentrations of 2.5 μM, 5.0 μM and 10 μM in media. The drug solution was then removed and selected wells exposed to white light for 1 min (22.8 J/cm^2). Fresh media was then added to each of the wells and cell viability determined 24 h later using a MTT assay. Each experiment was repeated on 3 separate occasions with an n=6 on each occasion.

[7] = test system: B16-F10-Luc2 melanoma cells; test: PDT of B16 melanoma cells, bioluminescent assay; type: cell-based, murine; conditions: 2.5, 5.0, 10 μM plus white light (22.8 J/cm^2)
Protocol: as §2
For the bioluminescent assay, imaging was undertaken using a Xenogen IVIS-100 bioluminescence/fluorescence optical imaging system. Treatments were performed as described above. D-Luciferin at 1.5% w/w was then added to treated wells and bioluminescence intensity was quantified 5 min later using the IVIS-100 system and Living Image Software as per protocol (Caliper LifeSciences). Regions of interest (RoI) were drawn around the wells to evaluate the intensity of signal emitted and expressed photons/second (p/s).

Substance	tumour growth, as part of SDT ([1]; ultrasound 3.5 min, 3 W cm-2, 1 MHz, duty cycle 30%)	tumour growth, as part of PDT ([1]; white light 3 min (68.4 J/cm^-2) 30 minutes later)	tumour growth / tumour size, as part of PDT [2]	tumour growth / tumour size, as part of PDT ([2]; listed as conjugate of Rose Bengal and a peptide having the amino acid sequence defined by)	tumour growth, as part of SDT ([2]; as stated in the result sentence of Example 5)	cell viability (MTT), cell killing as part of SDT [3]	cell viability (MTT), cell killing as part of PDT [4]	cell viability (MTT), cell killing as part of PDT [5]	cell viability (MTT), cytotoxic effect as part of PDT [6]	cell viability (MTT), cytotoxic effect as part of PDT ([6]; listed as RB-C(KLAKLAK)2 L enantiomer)	bioluminescent intensity relative to the control [7]
RB-(KLAKLAK)2: conjugate of Rose Bengal and all-D peptide Lys-Leu-Ala-Lys-Leu-Ala-Lys-Lys-Leu-Ala-Lys-Leu-Ala-Lys (SEQ ID NO: 1), no cysteine (KLAKLAKKLAKLAK; not fully specified; Rose Bengal conjugate; all-D amino acids)	effectively reduced B16-F10-Luc2 melanoma tumour growth	effectively reduced B16-F10-Luc2 melanoma tumour growth; also recorded: PDT was superior									
RB-C(KLAKLAK)2: conjugate of Rose Bengal and peptide Cys-Lys-Leu-Ala-Lys-Leu-Ala-Lys-Lys-Leu-Ala-Lys-Leu-Ala-Lys (SEQ ID NO: 2) ({RB}-CKLAKLAKKLAKLAK-NH2; also: Rose Bengal conjugate, site not given here)			effectively reduced B16-F10-Luc2 melanoma tumour growth; also recorded: inhibited tumour growth to a greater extent	significant reduction in tumour size	effectively reduced B16-F10-Luc2 melanoma tumour growth	effectively killed B16-F10-Luc2 melanoma cells	effectively killed MCF-7 invasive breast ductal carcinoma cells	effectively killed PANC-1 epithelioid carcinoma cells	significantly better than photodynamic therapy using Rose Bengal alone; also recorded: effectively killed B16-F10-Luc2 melanoma cells	more potent cytotoxic effect than the RB-C(KLAKLAK)2 (SEQ ID NO. 2) D enantiomer	significant reduction in bioluminescence
RB-C(KLAKLAK): conjugate of Rose Bengal and peptide Cys-Lys-Leu-Ala-Lys-Leu-Ala-Lys (SEQ ID NO: 6) ({RB}-CKLAKLAK-NH2; not fully specified)							effectively killed MCF-7 invasive breast ductal carcinoma cells	effectively killed PANC-1 epithelioid carcinoma cells			

Reference: US11712473B2, “Sensitizer-peptide conjugate” (UNIVERSITY OF ULSTER, priority 2017, dated 2023)
